Reference: the supplement of paper PMC8960247
± gives the standard error.

Key:
621-102 (TSC2-deficient) = assay: relative viability vs DMSO; higher = less cytotoxic; conditions: serum: 10% FBS, 72 h
621-103 (TSC2-rescued) = assay: as above; conditions: serum: 10% FBS, 72 h
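Further: immortalized renal angiomyolipoma cells stably carrying empty vector or TSC2, dosed in 384-well plates in DMEM, viability normalized to vehicle-treated wells within each plate.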

Structure (SMILES)	relative viability (621-102 (TSC2-deficient); 0.0001 µM)	relative viability (621-102 (TSC2-deficient); 0.001 µM)	relative viability (621-102 (TSC2-deficient); 0.01 µM)	relative viability (621-102 (TSC2-deficient); 0.1 µM)	relative viability (621-102 (TSC2-deficient); 1 µM)	relative viability (621-102 (TSC2-deficient); 10 µM)	relative viability (621-103 (TSC2-rescued); 0.0001 µM)	relative viability (621-103 (TSC2-rescued); 0.001 µM)	relative viability (621-103 (TSC2-rescued); 0.01 µM)	relative viability (621-103 (TSC2-rescued); 0.1 µM)	relative viability (621-103 (TSC2-rescued); 1 µM)	relative viability (621-103 (TSC2-rescued); 10 µM)
NC(=O)[C@@H](CCC(F)(F)F)N(Cc1ccc(-c2ncon2)cc1F)S(=O)(=O)c1ccc(Cl)cc1	109.7 ± 0.27%	108 ± 2.7%	124 ± 2.7%	116.1 ± 0.31%	117 ± 2.9%	108 ± 2.9%	103 ± 1.2%	102 ± 1.3%	101.6 ± 0.3%	103.4 ± 0.95%	103.76 ± 0.01%	102 ± 1.9%
NC(=O)c1cccc2[nH]c(-c3ccc(C4CCCN4)cc3F)nc12 (stereo not given)	98.7 ± 1.1%	103.2 ± 0.25%	104 ± 4.6%	99.4 ± 3.5%	102 ± 4.6%	93.99 ± 0.45%	96.5 ± 3.4%	98.4 ± 1.8%	102 ± 2.6%	98.4 ± 4.6%	103 ± 2.3%	94 ± 1.4%
NC1(Cc2ccc(Cl)cc2)CCN(c2ncnc3[nH]ccc23)CC1	65.2 ± 2.3%	81 ± 1.2%	81.4 ± 1.9%	92.8 ± 5.6%	77.3 ± 3.3%	60.6 ± 1%	114 ± 2.5%	102 ± 1.4%	111 ± 2.4%	102 ± 5.5%	96.3 ± 4.4%	72 ± 0.83%
Nc1nccc(Oc2ccc(NC(=O)c3c[nH]cc(-c4ccc(F)cc4)c3=O)cc2F)c1Cl	94 ± 10%	118 ± 2.6%	111 ± 3.1%	103 ± 2.8%	102 ± 2.2%	94.5 ± 1.3%	90.9 ± 6.6%	94.6 ± 4.2%	102 ± 1.6%	104 ± 2%	98.9 ± 1.2%	98.15 ± 0.84%
O=C(NOCC1CC1)c1ccc(F)c(F)c1Nc1ccc(I)cc1Cl	101 ± 2.5%	98 ± 1.2%	104 ± 1.8%	97.3 ± 1.5%	98.4 ± 1.5%	81.4 ± 0.87%	97.56 ± 0.82%	92.3 ± 5.6%	98.9 ± 2.7%	99.9 ± 2.7%	96.7 ± 3.3%	74.9 ± 1.4%
OC(CN1CCN(c2cccc(Cl)c2)CC1)C(c1ccccc1)c1ccccc1 (stereo not given)	102 ± 4.7%	93.4 ± 2.8%	104 ± 2.5%	95.9 ± 2.9%	102 ± 2.5%	89.25 ± 0.44%	83.9 ± 10%	85.7 ± 8.3%	95.1 ± 7.2%	98.58 ± 0.47%	83.3 ± 4.9%	79.1 ± 4.4%
COc1cc2c(cc1O)CC[C@@H]1[C@@H]2CC[C@]2(C)[C@@H](O)CC[C@@H]12 [2-Methoxyestradiol]	121 ± 1.9%	118 ± 3.8%	112 ± 2.2%	107 ± 3.3%	80 ± 2.5%	39.8 ± 1.9%	107 ± 2.6%	103.2 ± 0.73%	98.66 ± 0.82%	98.8 ± 2%	82.5 ± 3.2%	53.7 ± 0.91%
C=CCNC1=C2C[C@@H](C)C[C@H](OC)[C@H](O)[C@@H](C)/C=C(\C)[C@H](OC(N)=O)[C@@H](OC)/C=C\C=C(/C)C(=O)NC(=CC1=O)C2=O [17-AAG (Geldanamycin)]	105 ± 1.4%	100.9 ± 0.99%	72.2 ± 2.9%	25.7 ± 0.57%	23.2 ± 0.81%	25.3 ± 0.31%	104.5 ± 0.96%	104 ± 3%	72.4 ± 3.8%	14.3 ± 0.16%	6.05 ± 0.096%	6.31 ± 0.22%
CO[C@H]1/C=C\C=C(/C)C(=O)NC2=CC(=O)C(NCCN(C)C)=C(C[C@@H](C)C[C@H](OC)[C@H](O)[C@@H](C)/C=C(\C)[C@@H]1OC(N)=O)C2=O [17-DMAG]	76.2 ± 3.6%	58 ± 3.6%	28.6 ± 0.72%	21.7 ± 0.8%	26.3 ± 0.3%	16.31 ± 0.12%	90.6 ± 3%	41 ± 1.2%	5.591 ± 0.017%	5.287 ± 0.051%	6.16 ± 0.36%	3.07 ± 0.31%
CC1(C)CCC(c2ccc(Cl)cc2)=C(CN2CCN(c3ccc(C(=O)NS(=O)(=O)c4ccc(N[C@H](CCN5CCOCC5)CSc5ccccc5)c(S(=O)(=O)C(F)(F)F)c4)cc3)CC2)C1 [ABT-263 (Navitoclax)]	114 ± 3.6%	123 ± 7.2%	116 ± 4.2%	104 ± 3.3%	118.5 ± 0.83%	68.4 ± 0.82%	100.9 ± 0.9%	98.3 ± 2.4%	98 ± 1.2%	98.6 ± 2%	97.65 ± 0.41%	55.33 ± 0.17%
COc1ccc(S(=O)(=O)Nc2cccnc2Nc2ccc(O)cc2)cc1 [ABT-751]	112 ± 3.7%	114 ± 3.9%	111 ± 1.8%	110 ± 5.1%	44.8 ± 1.6%	49.55 ± 0.36%	108 ± 3.8%	108 ± 2.6%	105 ± 3.2%	98 ± 1.5%	44.2 ± 2.2%	44.8 ± 0.75%
Cc1ccc(F)c(NC(=O)Nc2ccc(-c3cccc4[nH]nc(N)c34)cc2)c1 [ABT-869]	106 ± 3%	100.3 ± 0.6%	108 ± 1.6%	108 ± 5.5%	107 ± 2.2%	86 ± 1.5%	97.84 ± 0.17%	100 ± 1.3%	108 ± 6.2%	107 ± 3.4%	109.7 ± 0.82%	80.4 ± 3.2%
C[C@]1(c2nc3c(C(N)=O)cccc3[nH]2)CCCN1 [ABT-888]	129 ± 4.1%	118 ± 1.3%	124.3 ± 1.1%	120 ± 1.6%	122 ± 2.6%	104 ± 3.6%	104.8 ± 1%	103.4 ± 0.84%	104 ± 0.11%	104.7 ± 0.51%	105 ± 1.5%	103 ± 1.3%
CC(C)(C)c1cc(NC(=O)Nc2ccc(-c3cn4c(n3)sc3cc(OCCN5CCOCC5)ccc34)cc2)no1 [AC-220]	81.8 ± 3.2%	84.77 ± 0.0088%	87.3 ± 3.6%	84.9 ± 5.7%	70.1 ± 1.2%	53.1 ± 3%	96.29 ± 0.69%	98 ± 1.9%	99.4 ± 2.7%	97.8 ± 2.8%	76.5 ± 4.7%	44.7 ± 1.2%
N#C/C(=C\c1ccc(O)c(O)c1)C(=O)NCc1ccccc1 [AG-490]	99.7 ± 2.8%	98.6 ± 3.6%	92.6 ± 2.9%	104 ± 2.4%	99.2 ± 6.6%	81 ± 1.6%	109 ± 1.2%	109 ± 3.9%	108 ± 2%	114 ± 1.2%	107 ± 1%	83.8 ± 3.9%
Cc1csc(-c2nnc(Nc3ccc(Oc4ncccc4-c4ccnc(N)n4)cc3)c3ccccc23)c1 [AMG900]	84.8 ± 2%	74.8 ± 1.5%	75.4 ± 0.76%	83.24 ± 0.43%	78.91 ± 0.56%	76 ± 2.4%	88.9 ± 4.5%	77.64 ± 0.67%	71.5 ± 4.7%	77.7 ± 1.1%	65.8 ± 2.5%	73.6 ± 1.5%
CC(C)[C@H](C(=O)Nc1ccc(C(=O)NO)cc1)c1ccccc1 [AR-42 (HDAC-42)]	94.68 ± 0.44%	109 ± 2.2%	90.8 ± 3.5%	82.4 ± 0.9%	61.7 ± 2.2%	41 ± 1.6%	109 ± 2%	98.16 ± 0.28%	102 ± 6.3%	83.4 ± 3.6%	41.07 ± 0.079%	3.41 ± 0.081%
Clc1ccc(C2(c3ccc(-c4cn[nH]c4)cc3)CCNCC2)cc1 [AT7867]	98.8 ± 5.5%	102 ± 6.2%	105 ± 4.8%	95.8 ± 1.7%	85.23 ± 0.13%	49.2 ± 3.2%	89.1 ± 5.1%	90.1 ± 2.4%	90.2 ± 4.9%	94.3 ± 6.7%	75.1 ± 5.7%	18.5 ± 2.6%
COc1cc2nccc(Oc3ccc(NC(=O)Nc4cc(C)on4)c(Cl)c3)c2cc1OC [AV-951(Tivozanib)]	102 ± 2%	96.6 ± 3.2%	110 ± 5.9%	111 ± 2%	107 ± 2.7%	77.33 ± 0.38%	101.2 ± 0.14%	104 ± 1.3%	102.2 ± 0.42%	99.26 ± 0.52%	102 ± 2.4%	48.2 ± 1.3%
Cc1cc(Nc2nc(N[C@@H](C)c3ccc(F)cc3)c(C#N)cc2F)n[nH]1 [AZ 960]	99.6 ± 4%	107 ± 3.6%	103 ± 4.5%	104 ± 2.7%	47.1 ± 3.6%	44.9 ± 4.3%	99.9 ± 3.1%	101 ± 1.2%	94.7 ± 2.2%	92.44 ± 0.84%	62.82 ± 0.16%	16.3 ± 0.85%
